Assay results published in article PMC10682194, “Structural insights into ligand recognition and selectivity of the human hydroxycarboxylic acid receptor HCAR2” (Cell Discovery, 2023).
Where two headings read alike, the source gives them in different places.

Key:
HCAR2 [1] = conditions: cited from earlier work
HCAR2 [2] = system: HCAR2; design: method as in PMID 19349687; conditions: HCAR2 agonist; cited from earlier work
[3] = rat, compared to niacin; cited from earlier work
[4] = dog, compared to niacin; cited from earlier work
wild-type HCAR2 = biological target: T1, wild-type HCAR2 (Homo sapiens, UniProt Q8TDS4); assay: SPR binding affinity, wild-type receptor
T1 construct: expressed in transfected cells; host or cells: HEK293 cells (ATCC CRL-1573)
Experimental: Varying concentrations of agonist diluted in running buffer were injected as analytes for 100 s, as the period of association. Subsequently, the running buffer was alternatively perfused over the chip to allow the bound agonist to undergo a 50 s period of disassociation. Sensorgrams were recorded in real-time and analyzed in the Biacore X100 system for the calculation of binding affinity (KD).

[5] = system: HCAR2 mutants at positions 86, 91, 103, 107, 176, and 178; assay: Gi/o-cAMP assay, HCAR2 residues mutated to the allelic residues in HCAR3; type: cell-based, human; conditions: six HCAR2 residues mutated to HCAR3 residues
Experimental: (§1) The Gi/o-cAMP assay was performed as follows. […] Data were analyzed with GraphPad Prism 9.0. The experiments were performed in triplicate.

[6] = system: HCAR3 mutants at positions 86, 91, 103, 107, 176, and 178; assay: Gi/o-cAMP assay, reverse mutations in HCAR3; type: cell-based, human; conditions: reverse mutations of the six residues in HCAR3
Experimental: as §1

HCAR3 = HCAR3 (Homo sapiens, UniProt P49019); conditions: HCAR2 natural ligands on HCAR3; cited from earlier work
Chain of HCAR3 (P49019 whole entry): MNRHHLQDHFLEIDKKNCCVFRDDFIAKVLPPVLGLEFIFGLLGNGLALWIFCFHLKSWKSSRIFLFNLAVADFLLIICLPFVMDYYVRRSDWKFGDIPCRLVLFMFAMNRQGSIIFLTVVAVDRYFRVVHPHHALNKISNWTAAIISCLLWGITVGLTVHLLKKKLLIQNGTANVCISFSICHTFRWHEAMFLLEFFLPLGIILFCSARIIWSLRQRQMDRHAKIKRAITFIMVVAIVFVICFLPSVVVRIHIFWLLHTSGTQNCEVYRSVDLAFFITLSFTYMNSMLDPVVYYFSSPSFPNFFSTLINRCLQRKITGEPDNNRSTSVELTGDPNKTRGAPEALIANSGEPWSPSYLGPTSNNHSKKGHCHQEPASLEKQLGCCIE

T1 sequence (Q8TDS4 whole entry): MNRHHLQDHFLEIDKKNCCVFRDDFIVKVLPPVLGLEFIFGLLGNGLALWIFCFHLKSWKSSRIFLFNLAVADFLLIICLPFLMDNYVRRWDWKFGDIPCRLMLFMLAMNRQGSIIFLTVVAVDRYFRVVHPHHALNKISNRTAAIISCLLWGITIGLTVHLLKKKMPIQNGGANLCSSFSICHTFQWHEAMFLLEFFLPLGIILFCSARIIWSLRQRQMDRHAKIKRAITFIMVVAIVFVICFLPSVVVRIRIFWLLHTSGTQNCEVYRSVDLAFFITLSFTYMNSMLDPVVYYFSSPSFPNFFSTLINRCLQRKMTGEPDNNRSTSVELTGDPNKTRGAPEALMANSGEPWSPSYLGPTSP

In the case of `CCCCCC(O)CC(=O)O` (stereo not drawn) [3-hydroxyoctanoic acid], the “activation of HCAR2” value (HCAR2 [1]; natural ligand of HCAR3 tested on HCAR2) is listed as “not activated”.

In the case of `C1Cc2[nH]nc(-c3nn[nH]n3)c2C1` [MK-0354], the β-arrestin activation (HCAR2 [2]) is given as “weak”.

For `CC(C)(Cc1nc(-c2ccc(O)cn2)no1)C(=O)NC1=C(C(=O)O)CCCC1` [MK-6892], the flushing effect [3] is given as “significantly relieved” and the flushing effect [4] is given as “significantly relieved”.

With `Cc1cnc(C(=O)O)c[n+]1[O-]` [acipimox] the Kd (wild-type HCAR2) was 429 nM, the “effect of mutations on agonist activity in HCAR2” value [5] was “markedly reduced” and the “agonistic activity compared to wild-type HCAR3” value [6] was “increased”. For the same compound, the EC50 (HCAR2 [1]; agonist of HCAR2) was 2600 to 6000 nM.

For `CCCC(=O)O` [butyrate], the “activity toward HCAR3” value (HCAR3) is listed as “no activity”.

For `NC(=O)c1cccnc1` [nicotinamide], the “activity toward HCAR2” value (HCAR2 [1]; carboxyl group of niacin replaced with an amide group) is given as “no longer active”.

In the case of `CC(O)CC(=O)O` (stereo not drawn) [β-OHB, β-hydroxybutyrate], the “potency for HCAR2 relative to butyrate” value (HCAR2 [1]; endogenous ligands) is given as “higher potency” and the “activity toward HCAR3” value (HCAR3) is given as “no activity”.
